The test system of assay [1] is KETR3. Put plainly: Cytotoxicity against human Ketr3 cells at 10 uM after 96 hrs by MTT assay. It is filed as functional, cell-based.
Assay [2] concerns BGC-823. Put plainly: Cytotoxicity against human BGC823 cells at 10 uM after 96 hrs by MTT assay. It is filed as functional, cell-based. In general terms: Formazan colour is commonly taken as a measure of viable cells.
Assay [3] deals with HCT-8. In words: Cytotoxicity against human HCT8 cells at 10 uM after 96 hrs by MTT assay. The format is functional, cell-based.
Assay [4] concerns Human alphaherpesvirus 1. In words: Antiviral activity against Herpes simplex virus 1 at 10 uM. It is filed as functional, organism-based.
Assay [5] deals with A549. Put plainly: Cytotoxicity against human A549 cells at 10 uM after 96 hrs by MTT assay. It is filed as functional, cell-based.
Assay [6] has as its system MCF7. In words: Cytotoxicity against human MCF7 cells at 10 uM after 96 hrs by MTT assay. It is filed as functional, cell-based.
The test system of assay [7] is Human immunodeficiency virus 1. In words: Antiviral activity against HIV1 infected in 293T cells cotransfected with VSV-G at 10 uM after 48 hrs by ELISA. It is filed as functional, organism-based. For orientation: An ELISA detects its analyte on a solid surface through an enzyme-linked reagent.
For assay [8], the system named is Bel-7402. Put plainly: Cytotoxicity against human Bel7402 cells at 10 uM after 96 hrs by MTT assay. The format is functional, cell-based.
Assay [9] can be described thus: Hepatoprotective activity in rat WB-F344 cells assessed as inhibition of DL-Galactosamine-induced toxicity at 10 uM incubated for 1 hr prior to DL-Galactosamine-challenge measured after 24 hrs by MTT assay. The format is functional.

Activity calls are given as the source filed them. The calls are words filed in the database; no cut-off is given here.

With `COC(=O)c1ccccc1NC(=O)c1c[nH]c2ccccc2c1=O`, the outcome in assay [1], in [2], in assay [3], in assay [4], in [5] and in assay [6] was inactive. For the same compound, the outcome in assay [7] and in assay [8] was inactive.
As to `O=C1c2ccccc2-n2c1nc1ccccc1c2=O`, the outcome in [1], in assay [2], in assay [3], in [4], in assay [5] and in assay [6] was inactive. Also, the result in assay [7] and in assay [8] was inactive.
With `COc1cccc2c1[C@@](O)(CC(N)=O)C(=O)N2`, the outcome in assay [1], in assay [2], in [3], in assay [4], in assay [5] and in assay [6] was inactive. Besides, the outcome in assay [7] and in [8] was inactive.
The inhibition is the share of the control response that was lost under treatment. Turning to `O=C1CC2(O)c3ccccc3N3C(=O)c4ccccc4N1C32` (stereo not drawn), in [9], the inhibition at 10 µM worked out at 47%.
Consider `N#CC[C@@]1(O)C(=O)Nc2ccccc21`, for which the outcome in assay [1], in assay [2], in assay [3], in assay [4], in assay [5] and in assay [6] was inactive. The outcome in assay [7] and in assay [8] was inactive.
As to `O=C1O[C@H]([C@@H](O)CO)[C@@H](O)[C@@]1(O)Cc1c[nH]c2ccccc12`, the outcome in [1], in assay [2], in [3], in [4], in assay [5] and in assay [6] was inactive. The result in [7] and in assay [8] was inactive.
Take `NC(=O)C[C@@]1(O)C(=O)Nc2ccccc21`: the result in [1], in [2], in assay [3], in [4], in assay [5] and in assay [6] was inactive. Further, the result in assay [7] and in assay [8] was inactive.
Turning to `N#CC[C@@]1(O)C(=O)Nc2cccc(O)c21`, the outcome in assay [1], in assay [2], in [3], in assay [4], in assay [5] and in [6] was inactive. Moreover, the result in [7] and in assay [8] was inactive.
Take `O=C1C[C@]2(O)c3ccccc3N3C(=O)c4ccccc4N1[C@@H]32`: the result in assay [1], in assay [2], in [3], in assay [4], in [5] and in assay [6] was inactive. The result in assay [7] and in [8] was inactive.
In the case of `O=Cc1c[nH]c2ccccc12`, the result in assay [1], in assay [2], in [3], in assay [4], in assay [5] and in [6] was inactive. For the same compound, the result in assay [7] and in assay [8] was inactive.
For `C[C@H]1OC2=C(NC1=O)C(=O)OCC2`, the outcome in assay [1], in [2], in [3], in assay [4], in assay [5] and in assay [6] was inactive. For the same compound, the result in assay [7] and in [8] was inactive.
In the case of `Nc1ccccc1C(=O)O[C@@H]1O[C@H](CO)[C@@H](O)[C@H](O)[C@H]1O`, the outcome in assay [1], in assay [2], in assay [3], in assay [4], in assay [5] and in assay [6] was inactive. The outcome in assay [7] and in assay [8] was inactive.
For the compound `OC[C@H]1O[C@@H](Oc2c[nH]c3ccccc23)[C@H](O)[C@@H](O)[C@@H]1O`, the result in [1], in assay [2], in assay [3], in assay [4], in assay [5] and in [6] was inactive. The result in assay [7] and in assay [8] was inactive.
On to `COC(=O)c1cc(OC)c2c(c1-c1c(CO)cc(OC)c3c1OCO3)OCO2` [BICYCLOL], for which, in [9], the inhibition at 10 µM turned out to be 42%.
In the case of `COn1cc(CC#N)c2ccccc21`, the result in assay [1], in [2], in [3], in assay [4], in [5] and in assay [6] was inactive. For the same compound, the outcome in assay [7] and in assay [8] was inactive.
For `NC(=O)C[C@H]1C(=O)Nc2cccc(O)c21`, the outcome in [1], in assay [2], in [3], in assay [4], in assay [5] and in assay [6] was inactive. The outcome in assay [7] and in [8] was inactive.
Take `N#C/C=C1/C(=O)Nc2cccc(O)c21`: the result in [1], in [2], in assay [3], in [4], in assay [5] and in assay [6] was inactive. Besides, the result in assay [7] and in [8] was inactive.
Regarding `N#CCc1c[nH]c2cc(O[C@@H]3O[C@H](CO)[C@@H](O)[C@H](O)[C@H]3O)ccc12`, the result in assay [1], in assay [2], in assay [3], in assay [4], in [5] and in assay [6] was inactive. The outcome in assay [7] and in assay [8] was inactive.
`O=C1C[C@@]2(O)c3ccccc3N3C(=O)c4ccccc4N1[C@H]32`: the outcome in assay [1], in [2], in [3], in assay [4], in [5] and in assay [6] was inactive. Also, the outcome in [7] and in [8] was inactive.
In the case of `O=c1cc(-c2ccc(CO)o2)c2cc(O)ccc2[nH]1`, the outcome in [1], in [2], in [3], in [4], in [5] and in [6] was inactive. Also, the outcome in assay [7] and in assay [8] was inactive.
As for `N#CCc1c[nH]c2ccccc12`, the result in [1], in assay [2], in [3], in assay [4], in [5] and in [6] was inactive. For the same compound, the outcome in assay [7] and in assay [8] was inactive.
As for `Oc1ccc2[nH]c(O)cc2c1`, the outcome in assay [1], in assay [2], in assay [3], in assay [4], in assay [5] and in [6] was inactive. Further, the result in assay [7] and in [8] was inactive.
For `O=C1/C(=C2\Nc3ccccc3C2=O)Nc2ccccc21`, the outcome in assay [1], in assay [2], in assay [3], in [4], in assay [5] and in assay [6] was inactive. The result in assay [7] and in [8] was inactive.
Take `O=C1Nc2ccccc2/C1=C1/Nc2ccccc2C1=O`: the result in assay [1], in [2], in [3], in assay [4], in assay [5] and in assay [6] was inactive. Further, the result in [7] and in assay [8] was inactive.
